Measured values taken from ChEMBL document CHEMBL3431459, “Roche carnitine palmitoyltransferase modulator screening data (supplementary data associated with the publication CHEMBL2216752)”.
≈ marks a conversion by molar mass, not a printed value.

What was measured:
[1] = target: T1, Carnitine O-palmitoyltransferase 1, muscle isoform (Homo sapiens, UniProt Q92523); experiment: SUPPLEMENTARY: Inhibition of Carnitine palmitoyltransferase 1, muscle isoform; parameters: species or system Muscle tissue
T1 sequence (Q92523 whole entry): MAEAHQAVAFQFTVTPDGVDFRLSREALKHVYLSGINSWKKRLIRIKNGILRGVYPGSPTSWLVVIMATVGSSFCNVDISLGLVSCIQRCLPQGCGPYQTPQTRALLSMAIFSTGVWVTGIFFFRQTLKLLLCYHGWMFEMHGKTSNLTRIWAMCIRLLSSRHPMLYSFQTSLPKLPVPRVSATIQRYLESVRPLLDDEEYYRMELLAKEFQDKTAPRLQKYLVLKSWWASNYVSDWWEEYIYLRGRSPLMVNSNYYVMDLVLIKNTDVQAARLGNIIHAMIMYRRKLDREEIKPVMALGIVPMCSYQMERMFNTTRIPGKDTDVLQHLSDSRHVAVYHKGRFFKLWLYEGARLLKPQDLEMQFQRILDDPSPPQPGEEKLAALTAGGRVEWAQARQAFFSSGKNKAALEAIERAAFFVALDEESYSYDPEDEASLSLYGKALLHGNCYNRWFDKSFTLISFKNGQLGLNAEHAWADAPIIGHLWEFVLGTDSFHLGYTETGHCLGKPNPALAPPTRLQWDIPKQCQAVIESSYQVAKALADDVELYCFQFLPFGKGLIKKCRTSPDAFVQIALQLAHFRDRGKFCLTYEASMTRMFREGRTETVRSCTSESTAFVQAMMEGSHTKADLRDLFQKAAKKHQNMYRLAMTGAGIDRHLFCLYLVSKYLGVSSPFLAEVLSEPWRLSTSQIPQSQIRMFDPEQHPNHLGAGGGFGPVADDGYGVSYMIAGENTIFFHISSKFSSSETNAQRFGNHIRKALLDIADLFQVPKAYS

[2] = SUPPLEMENTARY: Lyophilisation Solubility Assay (LYSA); type: physicochemical; settings: read-out: Kinetic_solubility
[3] = SUPPLEMENTARY: Lipophilicity (log D) Determination by high-throughput shake-flask; type: physicochemical; settings: octanol/water
[4] = target: T2, Carnitine O-palmitoyltransferase 2, mitochondrial (Homo sapiens, UniProt P23786); experiment: (§1) SUPPLEMENTARY: Inhibition of Carnitine palmitoyltransferase 2
T2 sequence (P23786 whole entry): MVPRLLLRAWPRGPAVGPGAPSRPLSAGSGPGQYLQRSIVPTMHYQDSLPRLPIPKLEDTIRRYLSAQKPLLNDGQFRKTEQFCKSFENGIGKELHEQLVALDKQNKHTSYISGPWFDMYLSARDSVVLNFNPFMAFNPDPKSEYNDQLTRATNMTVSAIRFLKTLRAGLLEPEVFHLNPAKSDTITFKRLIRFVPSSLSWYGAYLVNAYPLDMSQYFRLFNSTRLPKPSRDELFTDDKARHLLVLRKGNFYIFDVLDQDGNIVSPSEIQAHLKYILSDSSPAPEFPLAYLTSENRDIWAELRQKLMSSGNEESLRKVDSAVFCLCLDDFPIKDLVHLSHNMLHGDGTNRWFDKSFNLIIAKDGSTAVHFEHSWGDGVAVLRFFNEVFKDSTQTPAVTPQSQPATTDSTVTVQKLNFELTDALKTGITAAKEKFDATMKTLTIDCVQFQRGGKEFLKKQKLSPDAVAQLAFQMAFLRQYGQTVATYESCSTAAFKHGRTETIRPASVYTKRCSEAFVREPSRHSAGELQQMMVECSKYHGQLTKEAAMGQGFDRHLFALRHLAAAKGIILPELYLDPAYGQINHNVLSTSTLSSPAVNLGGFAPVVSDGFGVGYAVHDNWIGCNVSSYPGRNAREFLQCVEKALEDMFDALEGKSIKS

[5] = target: T3, Carnitine O-palmitoyltransferase 2, mitochondrial (Rattus norvegicus, UniProt P18886); experiment: as §1
T3 sequence (P18886 whole entry): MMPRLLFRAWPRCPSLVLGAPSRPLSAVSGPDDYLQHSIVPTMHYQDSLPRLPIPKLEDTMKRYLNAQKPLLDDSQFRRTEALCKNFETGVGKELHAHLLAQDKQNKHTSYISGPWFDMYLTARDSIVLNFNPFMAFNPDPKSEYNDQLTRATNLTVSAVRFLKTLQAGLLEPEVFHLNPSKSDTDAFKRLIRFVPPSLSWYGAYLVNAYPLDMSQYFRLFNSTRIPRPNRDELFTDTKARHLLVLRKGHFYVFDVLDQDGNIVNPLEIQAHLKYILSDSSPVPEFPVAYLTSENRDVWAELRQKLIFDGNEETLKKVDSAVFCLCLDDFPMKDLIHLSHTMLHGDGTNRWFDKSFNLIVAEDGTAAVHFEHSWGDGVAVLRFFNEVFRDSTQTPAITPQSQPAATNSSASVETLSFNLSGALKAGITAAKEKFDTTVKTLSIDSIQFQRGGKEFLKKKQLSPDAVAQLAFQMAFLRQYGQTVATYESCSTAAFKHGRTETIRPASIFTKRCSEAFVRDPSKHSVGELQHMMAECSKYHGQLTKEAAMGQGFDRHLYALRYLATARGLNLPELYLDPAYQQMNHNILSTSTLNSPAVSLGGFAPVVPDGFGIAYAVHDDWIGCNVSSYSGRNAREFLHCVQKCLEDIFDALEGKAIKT

[6] = target: T4, Carnitine O-palmitoyltransferase 1, liver isoform (Rattus norvegicus, UniProt P32198); experiment: (§2) SUPPLEMENTARY: Inhibition of Carnitine palmitoyltransferase 1, liver isoform
T4 sequence (P32198 whole entry): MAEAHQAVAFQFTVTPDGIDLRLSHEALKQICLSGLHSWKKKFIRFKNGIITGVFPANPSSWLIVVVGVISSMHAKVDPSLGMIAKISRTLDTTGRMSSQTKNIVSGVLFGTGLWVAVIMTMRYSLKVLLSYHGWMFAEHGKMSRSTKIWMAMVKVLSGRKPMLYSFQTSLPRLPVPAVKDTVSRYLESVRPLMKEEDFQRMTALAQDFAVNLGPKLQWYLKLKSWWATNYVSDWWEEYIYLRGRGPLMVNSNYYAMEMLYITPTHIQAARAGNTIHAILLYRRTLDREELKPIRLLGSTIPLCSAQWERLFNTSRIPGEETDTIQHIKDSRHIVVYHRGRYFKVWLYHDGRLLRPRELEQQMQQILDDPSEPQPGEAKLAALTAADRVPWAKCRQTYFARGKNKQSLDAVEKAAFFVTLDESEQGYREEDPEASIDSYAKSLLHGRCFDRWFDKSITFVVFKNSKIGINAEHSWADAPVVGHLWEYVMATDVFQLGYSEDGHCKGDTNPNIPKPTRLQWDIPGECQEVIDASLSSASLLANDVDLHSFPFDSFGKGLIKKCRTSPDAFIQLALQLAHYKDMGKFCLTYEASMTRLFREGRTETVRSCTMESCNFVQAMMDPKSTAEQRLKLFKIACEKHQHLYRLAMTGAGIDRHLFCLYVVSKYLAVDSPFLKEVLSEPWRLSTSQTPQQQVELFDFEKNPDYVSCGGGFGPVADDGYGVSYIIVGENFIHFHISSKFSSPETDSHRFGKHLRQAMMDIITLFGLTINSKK

[7] = target: T5, Carnitine O-palmitoyltransferase 1, liver isoform (Homo sapiens, UniProt P50416); experiment: as §2
T5 sequence (P50416 whole entry): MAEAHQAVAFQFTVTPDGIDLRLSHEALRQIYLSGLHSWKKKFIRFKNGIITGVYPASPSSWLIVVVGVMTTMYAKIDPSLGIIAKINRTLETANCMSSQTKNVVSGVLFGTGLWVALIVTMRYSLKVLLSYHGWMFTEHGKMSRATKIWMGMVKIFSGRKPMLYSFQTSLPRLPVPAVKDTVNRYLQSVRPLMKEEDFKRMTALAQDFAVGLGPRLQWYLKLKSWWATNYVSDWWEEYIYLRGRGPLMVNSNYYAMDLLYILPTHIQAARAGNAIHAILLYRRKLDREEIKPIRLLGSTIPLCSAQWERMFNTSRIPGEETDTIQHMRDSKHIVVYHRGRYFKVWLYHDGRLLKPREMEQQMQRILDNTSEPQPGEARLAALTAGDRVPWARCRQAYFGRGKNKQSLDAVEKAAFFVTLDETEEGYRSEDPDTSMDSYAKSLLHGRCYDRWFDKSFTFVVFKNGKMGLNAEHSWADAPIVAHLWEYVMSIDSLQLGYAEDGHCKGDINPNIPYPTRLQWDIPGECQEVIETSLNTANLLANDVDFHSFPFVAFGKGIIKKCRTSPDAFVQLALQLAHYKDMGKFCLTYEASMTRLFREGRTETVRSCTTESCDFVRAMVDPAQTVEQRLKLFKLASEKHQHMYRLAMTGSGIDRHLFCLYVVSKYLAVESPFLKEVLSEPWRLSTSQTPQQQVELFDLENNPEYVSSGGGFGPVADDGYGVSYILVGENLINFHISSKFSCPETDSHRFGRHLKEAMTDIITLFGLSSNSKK

[8] = SUPPLEMENTARY: PAMPA permeability assay; type: physicochemical; settings: read-out: Permeability

Row | SMILES | IC50 [1] [µM] | solubility kinetic [2] [µg/mL] | logD [3] | IC50 [4] [µM] | IC50 [5] [µM] | IC50 [6] [µM] | IC50 [7] [µM] | Papp [8] [×10⁻⁶ cm/s]
1 | O=C(COc1ccccc1)N1CCCC[C@@H]1c1nc(-c2cccc(N3CCCS3(=O)=O)c2)no1 | > 100 | < 1 | 2.82 | > 100 | > 100 | 0.0598 | 0.0597 | 24.5
2 | O=C1CCCN1c1cccc(-c2noc([C@H]3CCCCN3C(=O)COc3ccccc3)n2)c1 | > 100 | < 1 | 3.09 | > 100 | > 100 | 0.0621 | 0.0888 | 3.86
3 | O=C1CN(c2cccc(-c3noc([C@H]4CCCCN4C(=O)COc4ccccc4)n3)c2)C(=O)N1 | > 100 | 14 (≈ 30.3 µM) | 2.62 | 50.6 | > 100 | 0.103 | 0.0506 | 3.82
4 | O=C(COc1ccccc1)N1CCCC[C@@H]1c1nc(-c2cccc(-n3cn[nH]c3=O)c2)no1 | > 100 | 40 (≈ 89.6 µM) | 2.42 | 51.5 | > 100 | 0.456 | 0.0963 | 4.87
5 | O=C(COc1ccccc1)N1CCC(n2c(COc3ccccc3)nc3cc(F)ccc32)CC1 | > 100 | < 1 | 3.95 | > 100 | > 100 | > 10 | 44.4 | 2.27
6 | COc1ccc(Cl)cc1S(=O)(=O)N1CCS(=O)(=O)c2ccc(C(=O)Nc3ccc(C(=O)O)c(F)c3)cc21 | 1.74 | 13 (≈ 22.8 µM) | -0.27 | 4.45 | 37.4 | 0.0613 | 0.102 | 0.21
7 | COc1ccc(Cl)cc1S(=O)(=O)N1CCSc2ccc(C(=O)Nc3ccc(C(=O)O)c(F)c3)cc21 | 0.4 | 7 (≈ 13 µM) | 2.6 | 1.99 | 9.04 | 0.0705 | 0.084 | 2.57
8 | COc1ccc(Cl)cc1S(=O)(=O)N1CCS(=O)(=O)c2ccc(C(=O)Nc3ccc(C(=O)O)c(Cl)c3)cc21 | 8.03 | 45 (≈ 76.9 µM) | -0.37 | 5.56 | 15.7 | 0.103 | 0.204 | 0.06
9 | CC(=O)Nc1ccc(-c2noc([C@H]3CCCCN3C(=O)C#Cc3ccccc3)n2)cc1C(F)(F)F | > 100 | 1 (≈ 2.07 µM) | > 3 | > 100 | > 100 | 7.98 | 0.26 | 1.5
10 | CN(C)C(=O)CCC(=O)Nc1cc(F)cc(-c2noc([C@H]3CCCCN3C(=O)COc3ccccc3)n2)c1 | > 100 | < 1 | 3.16 | 14.1 | > 100 | 0.253 | 0.111 | 0.83
